Experimental data reported in publication PMC10112268, “Inhibition of Human Coronaviruses by Combinations of Host-Targeted and Direct-Acting Antivirals” (Antimicrobial Agents and Chemotherapy, 2023).
Like-named read-outs stand apart in the source and are kept apart here.

Experiments:
[1] = system: HCoV-229E-GFP; test: microbe, parasite or virus in culture; type: cell-based; details: for IC50: Human coronavirus 229E
[2] = system: HCoV-OC43; test: microbe, parasite or virus in culture; type: cell-based
[3] = system: SARS-CoV-2 isolate MAD6 (Wuhan-Hu-1 strain); test: Virus yield inhibition in infected Calu3 2B4 cells, plaque assay on Vero E6; type: cell-based; details: for SARS-CoV-2 isolate MAD6 titers / IC50: 24 hpi; for SARS-CoV-2 isolate MAD6 titers: no drug 3.4 ± 1 × 10^5; for IC50: read-out: IC50, virus yield; for SARS-CoV-2 titers: at 100 μM, Fig. 3, no drug 3.±0.1 × 10^5
[4] = system: SARS-CoV-2 isolate 39896362_AG (omicron strain); test: microbe, parasite or virus in culture; type: cell-based; details: for IC50: Severe acute respiratory syndrome coronavirus 2, Vero C1008, omicron strain, AV from 1 h before adsorption, read-out: IC50, virus yield; for IC50 / SARS-CoV-2 isolate 39896362_AG titers: Fig. 1; for SARS-CoV-2 isolate 39896362_AG titers: no drug 1 ± 0.1 × 10^5
[5] = system: HCoV-229E, HCoV-OC43, and SARS-CoV-2; test: Antiviral assays, summary over all tested HCoVs; type: cell-based, human coronaviruses
[6] = system: HCoV-229E-GFP; test: Time of addition assay; type: cell-based; details: for IC50: Human coronavirus 229E, 24 hpi
[7] = system: HCoV-OC43; test: Time of addition assay; type: cell-based; details: for IC50: 48 hpi
[8] = system: SARS-CoV-2 isolate MAD6 (Wuhan-Hu-1 strain); test: Time of addition assay; type: cell-based; details: for IC50: 24 hpi, read-out: IC50, SARS-CoV-2 production
[9] = system: HCoV-229E-GFP; type: cell-based; details: no drug 3.5 ± 0.6 × 10^6
[10] = system: HCoV-OC43; type: cell-based; details: no drug 3.2 ± 0.2 × 10^6
[11] = system: SARS-CoV-2 (MAD6); test: Drug combination (synergy) study, virus yield in Calu3 2B4, CompuSyn; type: cell-based; details: for SARS-CoV-2 titers: no drug 3.2 ± 0.2 × 10^5; for average DRI: for the named drug over its combinations, at Fa = 0.5 to 0.95
[12] = system: HCoV-229E-GFP; test: Direct virucidal effect on virus particles; details: 10^5 PFU, 1 h at room temperature; LG 0 to 300 μM, VPA 0 to 300 mM
[13] = system: HCoV-OC43; test: Direct virucidal effect on virus particles; details: 10^5 PFU, 1 h at room temperature; LG 0 to 300 μM, VPA 0 to 300 mM
[14] = system: SARS-CoV-2; test: Direct virucidal effect on virus particles; details: 10^5 PFU, 1 h at room temperature; LG 0 to 300 μM, VPA 0 to 300 mM
[15] = system: TGEV; test: Antiviral effect against TGEV in WSL or ST cells, plaque assay on ST; type: cell-based, swine coronavirus TGEV; details: LG in WSL cells, VPA in ST cells
Description: Figure S2. […] The inhibitory effect […]
of LG or VPA was assayed on triplicate cultures of TGEV-infected WSL (wild swine macrophage cell line) or ST (swine testis) cells, respectively. After 1 h-pre-incubation with AVs, triplicate cultures were infected with the corresponding virus, at a MOI of 2 PFU/cell, in a reduced volume of medium containing the AV, for 2h, virus inoculum removed and cells washed twice with medium, before the addition of drug-containing fresh medium (supplemented with 2% FBS). Cultures were then incubated for 24 h at 37 °C; total virus (intracellular and extracellular) production was evaluated by plaque assay on triplicate cultures of ST cells. Left y-axis represents infectious virus progeny at 24 hpi and right y-axis, cell viability determined by MTT assay of each corresponding cell line. IC50 values and SI values […]
[TGEV titers (PFU/ml): 1.1±0.1 x 108 in the absence of the drugs, […]
(1 picture or pasted object on this page, not shown here)

[16] = in vitro; details: human, CC50 (MTT assay), Huh-7
[17] = in vitro; details: human, CC50 (MTT assay), HCT-8
[18] = in vitro; details: African green monkey
[19] = in vitro; details: human
[20] = Huh-7, read-out: IC50, virus yield, Huh-7, AV from 1 h before adsorption, 24 hpi, Fig. 1
[21] = Betacoronavirus 1, OC43, Huh-7, read-out: IC50, virus yield, Huh-7, AV from 1 h before adsorption, 48 hpi, Fig. 1
[22] = at 100 μM, Fig. 3, no drug 4 ± 0.9 × 10^6
[23] = Betacoronavirus 1, OC43, Huh-7, read-out: IC50, virus yield, specificity experiment (Fig. 3), Huh-7, 48 hpi
[24] = at 100 μM, Fig. 3, no drug 1.8 ± 0.9 × 10^6
[25] = Severe acute respiratory syndrome coronavirus 2, Calu-3 2B4, specificity experiment (Fig. 3), Calu3 2B4

For `CCCC(CCC)C(=O)O` [VPA, valproic acid], the IC50 [1, 20] was 9480 ± 1100 µM, the HCoV-229E-GFP titers ([1]; at VPA 40 mM, 24 hpi, no drug 3 ± 0.5 × 10^6, Fig. 1) was 2.5 ± 0.3 × 10^2 PFU/mL and the IC50 [2, 21] was 9330 ± 2100 µM. The HCoV-OC43 titers ([2]; at VPA 40 mM, 48 hpi, no drug 3.1 ± 0.9 × 10^6, Fig. 1) was 1.2 ± 0.1 × 10^2 PFU/mL, the “SARS-CoV-2 isolate MAD6 titers” value ([3]; at VPA 100 mM, Fig. 1) was 5 ± 0.01 × 10^1 PFU/mL and the IC50 ([4]; Vero E6) was 5.15 ± 0.3 mM. For the same compound, the “SARS-CoV-2 isolate 39896362_AG titers” value ([4]; at VPA 128 mM) was 1 ± 0.1 × 10^2 PFU/mL, the IC50 ([5]; average over all tested HCoVs, read-out: average IC50 value) was 7.2 mM and the IC50 ([5]; range over tested HCoVs, read-out: IC50 values, range over HCoVs) was 5 to 9 mM. For the same compound, the IC50 ([6]; read-out: IC50, HCoV-229E-GFP production, AV added 0 hpi) was 9.64 mM, the IC50 ([6]; read-out: IC50, HCoV-229E-GFP production, AV added 2 hpi) was 9.49 mM and the IC50 ([6]; read-out: IC50, HCoV-229E-GFP production, AV added −3 hpi (1 h before adsorption)) was 9.48 mM. For the same compound, the HCoV-229E-GFP average titers ([6]; at 40 mM VPA, average of addition times, no drug 4 ± 0.6 × 10^6) was 6 ± 2 × 10^2 PFU/mL, the IC50 ([7]; Betacoronavirus 1, OC43, read-out: IC50, HCoV-OC43 production, AV added 0 hpi) was 9.69 mM and the IC50 ([7]; Betacoronavirus 1, OC43, read-out: IC50, HCoV-OC43 production, AV added 2 hpi) was 9.49 mM. For the same compound, the IC50 ([7]; Betacoronavirus 1, OC43, read-out: IC50, HCoV-OC43 production, AV added −3 hpi (1 h before adsorption)) was 9.87 mM, the HCoV-OC43 average titers ([7]; at 40 mM VPA, average of addition times, no drug 3.5 ± 0.5 × 10^6) was 5 ± 0.01 × 10^1 PFU/mL and the IC50 ([8]; Severe acute respiratory syndrome coronavirus 2, AV added 0 hpi) was 5.02 mM. The IC50 ([8]; Severe acute respiratory syndrome coronavirus 2, AV added 2 hpi) was 5.04 mM, the IC50 ([8]; Severe acute respiratory syndrome coronavirus 2, AV added −2 hpi (1 h before adsorption)) was 4.99 mM and the SARS-CoV-2 average titers ([8]; at 100 mM VPA, average of addition times, no drug 3.4 ± 0.2 × 10^5) was 5 ± 0.01 × 10^1 PFU/mL. The HCoV-229E-GFP titers ([9]; at 32 mM VPA) was 5 ± 0.3 × 10^2 PFU/mL, the HCoV-OC43 titers ([10]; at 32 mM VPA) was 5 ± 0.01 × 10^1 PFU/mL and the SARS-CoV-2 titers ([11]; at 16 mM VPA) was 4 ± 0.1 × 10^4 PFU/mL. The “average DRI” value [11] was 5.19, the “direct virucidal effect (change in virus titers)” value [12] was “No decrease in virus titers” and the “direct virucidal effect (change in virus titers)” value [13] was “No decrease in virus titers”. For the same compound, the “direct virucidal effect (change in virus titers)” value [14] was “No decrease in virus titers”, the “inhibition of TGEV multiplication” value [15] was “inhibited the multiplication” and the CC50 ([16]; 24 h cell incubation with AV) was 70 mM. For the same compound, the CC50 ([16]; 48 h cell incubation with AV) was 66 mM, the CC50 ([17]; 24 h cell incubation with AV) was 95.7 mM and the CC50 ([17]; 48 h cell incubation with AV) was 76.2 mM.

In the case of `CCC(CC)COC(=O)[C@H](C)N[P@](=O)(OC[C@H]1O[C@@](C#N)(c2ccc3c(N)ncnn23)[C@H](O)[C@@H]1O)Oc1ccccc1` [RDV, remdesivir], the “selectivity index (SI=CC50/IC50)” value [1] is reported as 1732, the IC50 [1, 20] is reported as 0.0144 ± 0.0041 µM and the HCoV-229E-GFP titers ([1]; at RDV 500 nM, 24 hpi, no drug 3 ± 0.5 × 10^6, Fig. 1) is reported as 6 ± 0.1 × 10^2 PFU/mL. The IC50 [2, 21] was 0.046 µM, the “selectivity index (SI=CC50/IC50)” value ([2]; HCoV-OC43, Huh-7) was 435 and the HCoV-OC43 titers ([2]; at RDV 500 nM, 48 hpi, no drug 3.1 ± 0.9 × 10^6, Fig. 1) was 6 ± 0.1 × 10^2 PFU/mL. For the same compound, the “selectivity index (SI=CC50/IC50)” value ([3]; SARS-CoV-2 Wuhan-Hu-1, Calu3 2B4) was 102, the IC50 ([3]; Severe acute respiratory syndrome coronavirus 2, Calu-3 2B4, Calu3 2B4, Wuhan-Hu-1 strain, AV from 1 h before adsorption, Fig. 1) was 1.07 µM and the “SARS-CoV-2 isolate MAD6 titers” value ([3]; at RDV 20 μM, Fig. 1) was 6 ± 0.3 × 10^2 PFU/mL. The “selectivity index (SI=CC50/IC50)” value ([4]; SARS-CoV-2 omicron, Vero E6) was 52, the IC50 ([4]; Vero E6) was 0.00163 ± 0.0002 mM and the “SARS-CoV-2 isolate 39896362_AG titers” value ([4]; at RDV 32 μM) was 5 ± 0.01 × 10^1 PFU/mL. The HCoV-229E-GFP titers ([9]; at 160 nM RDV) was 4 ± 0.2 × 10^2 PFU/mL, the HCoV-OC43 titers ([10]; at 320 nM RDV) was 1.6 ± 0.2 × 10^4 PFU/mL and the SARS-CoV-2 titers ([11]; at 8 μM RDV) was 1.7 ± 0.2 × 10^3 PFU/mL. For the same compound, the “average DRI” value [11] was 4.31, the CC50 ([16]; 24 h cell incubation with AV) was 0.025 mM and the CC50 ([16]; 48 h cell incubation with AV) was 0.02 mM. For the same compound, the CC50 ([17]; 24 h cell incubation with AV) was 0.043 mM, the CC50 ([17]; 48 h cell incubation with AV) was 0.038 mM and the CC50 [18] was 85 µM. The CC50 [19] was 109 µM.

For `CCCCCCCCOC(=O)c1cc(O)c(O)c(O)c1` [OG, octyl gallate], the IC50 ([1]; Huh-7, read-out: IC50, virus yield, specificity experiment (Fig. 3), Huh-7, 24 hpi) was 3.9 µM, the HCoV-229E-GFP titers [1, 22] was 1.4 ± 0.5 × 10^3 PFU/mL and the IC50 [2, 23] was 2.56 µM. For the same compound, the HCoV-OC43 titers [2, 24] was 5 ± 0.01 × 10^1 PFU/mL.

With `O=C(O[C@@H]1Cc2c(O)cc(O)cc2O[C@@H]1c1ccc(O)c(O)c1)c1cc(O)c(O)c(O)c1` [ECG, epicatechin gallate] the IC50 [3, 25] was 50.1 µM and the SARS-CoV-2 titers [3] was 6 ± 0.3 × 10^4 PFU/mL.

With `O=C(O)c1cc(O)c(O)c(O)c1` [G, gallic acid] the “inhibition of viral multiplication at nontoxic concentrations” value (shortened to “inhibition of viral multiplication”) ([1]; Huh-7, Fig. 3) was “Neither G nor PG inhibited viral multiplication”, the HCoV-229E-GFP titers [1, 22] was 3.1 ± 0.2 × 10^6 PFU/mL and the “inhibition of viral multiplication” value ([2]; Huh-7, Fig. 3) was “Neither G nor PG inhibited viral multiplication”. The HCoV-OC43 titers [2, 24] was 1.2 ± 0.2 × 10^6 PFU/mL, the IC50 [3, 25] was 40.5 µM and the SARS-CoV-2 titers [3] was 7.5 ± 0.2 × 10^4 PFU/mL.

For `CCCOC(=O)c1cc(O)c(O)c(O)c1` [PG, propyl gallate], the “inhibition of viral multiplication” value ([1]; Huh-7, Fig. 3) was “Neither G nor PG inhibited viral multiplication”, the HCoV-229E-GFP titers [1, 22] was 2.2 ± 0.3 × 10^6 PFU/mL and the IC50 [2, 23] was 22.5 µM. For the same compound, the “inhibition of viral multiplication” value ([2]; Huh-7, Fig. 3) was “Neither G nor PG inhibited viral multiplication” and the HCoV-OC43 titers [2, 24] was 1.2 ± 0.3 × 10^6 PFU/mL.
